Test results published in patent publication US7348347B2, “Substituted 4,5,6,7-tetrahydrobenzthiazol-2-ylamine compounds” (Gruenenthal GmbH, priority 2004, dated 2008).

Biological target: T1, 5-HT uptake (Rattus norvegicus, UniProt P31652)
T1 construct: from tissue; host or cells: rat brain synaptosomes (P2 fraction) from marrow (medulla) and pons
Experiment: Inhibition of 5-HT uptake in rat brain synaptosomes
Assay type: biochemical
Conditions: rat synaptosomes (and pons), [3H]-5-HT
Method: The relevant literature reference is enclosed herein by reference and is to be regarded as part of the disclosure.
The homogenate is centrifuged at 4° C. for 10 minutes at 1000 g. Following subsequent centrifugation at 17,000 g for 55 minutes, the synaptosomes (P2 fraction) are obtained, which are then resuspended in 0.32 M […] (0.5 mL/100 mg of the original weight).
The respective uptake was measured in a 96 well microtiter plate. The volume was 250 μL and the incubation was carried out at room temperature (ca 20-25° C.) under a blanket of oxygen.
The 96 samples through were then filtered through a Unifilter GF/B® microtiter plate (Packard) and washed with 200 mL of incubated buffer with the aid of a “Brabdel Cell-Harvester MPXRI 96T”. The Unifilter GF/B plate was dried at 55° C. over a period of 1 h. The plate was then sealed with a back seal® (Packard) and there were then added 35 μL of scintillant fluid per well (Ultima Gold, Packard).
A detailed description of the method is disclosed in the literature, for example, in M. Ch.

T1 sequence (P31652 whole entry): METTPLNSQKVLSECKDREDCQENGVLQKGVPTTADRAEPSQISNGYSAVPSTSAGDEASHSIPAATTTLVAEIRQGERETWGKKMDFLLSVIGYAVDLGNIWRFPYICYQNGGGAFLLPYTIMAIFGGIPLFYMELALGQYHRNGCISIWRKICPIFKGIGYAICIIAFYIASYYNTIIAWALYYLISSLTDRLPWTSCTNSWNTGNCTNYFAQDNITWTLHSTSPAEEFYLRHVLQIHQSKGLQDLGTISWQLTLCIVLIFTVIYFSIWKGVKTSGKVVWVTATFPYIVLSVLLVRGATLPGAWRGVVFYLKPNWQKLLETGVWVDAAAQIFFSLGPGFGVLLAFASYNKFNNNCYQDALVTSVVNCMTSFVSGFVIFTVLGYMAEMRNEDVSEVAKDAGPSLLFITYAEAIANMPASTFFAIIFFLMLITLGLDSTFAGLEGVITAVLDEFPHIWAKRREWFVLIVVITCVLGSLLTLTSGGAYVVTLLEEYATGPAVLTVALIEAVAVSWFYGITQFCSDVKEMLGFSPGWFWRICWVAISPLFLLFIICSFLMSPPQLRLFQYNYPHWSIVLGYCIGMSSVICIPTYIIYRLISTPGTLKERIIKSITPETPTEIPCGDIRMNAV

Row | Compound | % Inhibition of 5-HT uptake [10 μM] [%]
1 | CN1CCCN(C(=O)C2CCCc3sc(NC(=O)COc4ccccc4)nc32)CC1 (stereo not shown) [Example 2, N-[4-(4-Methyl-[1,4]diazepam-1-carbonyl)-4,5,6,7-tetrahydrobenzthiazol-2-yl]-2-phenoxy acetamide] | 58

Same assay, conditions: rat synaptosomes (medulla and pons), [3H]-5-HT

Row | Compound | inhibition at 10 µM [%] | % Inhibition of 5-HT uptake [10 μM] [%]
2 | CCOc1ccc(Br)cc1CN1CCC(NC(=O)C2CCCc3sc(NC(=O)c4ccco4)nc32)C1 (stereo not shown) [Example 50, 2-[(Furan-2-carbonyl)amino]-4,5,6,7-tetrahydrobenzthiazol-4-carboxylic acid [1-(5-bromo-2-ethoxybenzyl)pyrrolidin-3-yl]amide] | 72 | –
3 | COc1ccc(C(=O)Nc2nc3c(s2)CCCC3C(=O)NCC2CCN(Cc3c(F)cccc3Cl)C2)cc1 (stereo not shown) [Example 12, 2-(4-Methoxybenzoylamino)-4,5,6,7-tetrahydrobenzthiazol-4-carboxylic acid [1-(2-chloro-6-fluorobenzyl)pyrrolidin-3-yl]methylamide] | 55 | –
4 | O=C(Nc1nc2c(s1)CCCC2C(=O)N1CCN(CC(=O)N2CCCC2)CC1)c1ccc2ccccc2c1 (stereo not shown) [Example 32, Naphthalene-2-carboxylic acid{4-[4-(2-oxo-2-pyrrolidin-1-ylethyl)piperazin-1-carbonyl]-4,5,6,7-tetrahydrobenzthiazol-2-yl}amide] | – | 51
5 | CN(C)CCNC(=O)C1CCCc2sc(NC(=O)COc3ccccc3)nc21 (stereo not shown) [Example 30, 2-(2-Phenoxyacetylamino)-4,5,6,7-tetrahydrobenzthiazol-4-carboxylic acid(2-dimethylaminoethyl)amide] | – | 64
6 | CN(C)CCN1CCN(C(=O)C2CCCc3sc(NC(=O)CC4CCCCC4)nc32)CC1 (stereo not shown) [Example 1, 2-Cyclohexyl-N-{4-[4-(2-Dimethylaminoethyl)piperazin-1-carbonyl]-4,5,6,7-tetrahydrobenzthiazol-2-yl}acetamide] | 65 | –
7 | CN1CCCC1CCNC(=O)C1CCCc2sc(NC(=O)COc3ccc(F)cc3)nc21 (stereo not shown) [Example 46, 2-[2-(4-Fluorophenoxy)acetylamino]-4,5,6,7-tetrahydrobenzthiazol-4-carboxylic acid[2-(1-methylpyrrolidin-2-yl)ethyl]amide] | – | 53
8 | CCOc1cc(N2CCOCC2)c(OCC)cc1NC(=O)C1CCCc2sc(NC(=O)CC(C)(C)C)nc21 (stereo not shown) [Example 80, 2-(3,3-Dimethylbutyrylamino)-4,5,6,7-tetrahydrobenzthiazol-4-carboxylic acid (2,5-diethoxy-4-morpholin-4-ylphenyl)amide] | 52 | –

Biological target: T2, NA transporter (Rattus norvegicus, UniProt Q63380)
T2 construct: from tissue; host or cells: rat brain synaptosomes (P2 fraction) from hypothalamus
T2 sequence (Q63380 1-617): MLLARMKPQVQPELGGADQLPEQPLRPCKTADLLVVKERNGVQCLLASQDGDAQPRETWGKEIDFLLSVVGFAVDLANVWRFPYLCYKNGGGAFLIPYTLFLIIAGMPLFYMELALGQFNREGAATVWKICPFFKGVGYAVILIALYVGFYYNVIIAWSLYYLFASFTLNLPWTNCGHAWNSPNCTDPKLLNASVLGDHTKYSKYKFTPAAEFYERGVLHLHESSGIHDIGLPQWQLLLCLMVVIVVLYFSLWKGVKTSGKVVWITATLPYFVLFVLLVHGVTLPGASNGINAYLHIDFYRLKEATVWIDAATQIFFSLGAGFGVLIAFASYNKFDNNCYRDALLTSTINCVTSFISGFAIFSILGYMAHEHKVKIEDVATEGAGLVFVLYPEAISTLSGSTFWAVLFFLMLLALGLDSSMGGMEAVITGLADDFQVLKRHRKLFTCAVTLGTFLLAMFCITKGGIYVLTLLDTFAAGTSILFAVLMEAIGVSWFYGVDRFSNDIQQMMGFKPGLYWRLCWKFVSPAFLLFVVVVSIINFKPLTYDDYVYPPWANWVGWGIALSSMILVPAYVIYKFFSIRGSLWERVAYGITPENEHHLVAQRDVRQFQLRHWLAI
Experiment: Inhibition of noradrenaline uptake in rat brain synaptosomes
Assay type: biochemical
Conditions: 10 μM; rat synaptosomes (hypothalamus), [3H]-NA
Method: II. […] For in vitro studies, synaptosomes of rat brain areas are freshly isolated, as described in the article “The isolation of nerve endings from brain” by E. G. Gray and […]. Anatomy 96, pages 79-88, 1962. The relevant literature reference is enclosed herein by reference and is to be regarded as part of the disclosure. […] The homogenate is centrifuged at 4° C. for 10 minutes at 1000 g. […] The respective uptake was measured in a 96 well microtiter plate. The volume was 250 μL and the incubation was carried out at room temperature (ca 20-25° C.) under a blanket of oxygen. […] The 96 samples through were then filtered through a Unifilter GF/B® microtiter plate (Packard) and washed with 200 mL of incubated buffer with the aid of a “Brabdel Cell-Harvester MPXRI 96T”. The Unifilter GF/B plate was dried at 55° C. over a period of 1 h. The plate was then sealed with a back seal® (Packard) and there were then added 35 μL of scintillant fluid per well (Ultima Gold, Packard). Following sealing with a top seal® (Packard) and following adjustment of the equilibrium (approximately over a period of 5 h), the radioactivity is determined in a 1450 Microbeta® (Wallac). […] The amount of protein used in the above determination corresponded to the values known from the literature, such as is described in “Protein measurement with the folin phenol reagent”, Lowry et al., J. Biol. Chem., 193, 265-275, 1951. A detailed description of the method is disclosed in the literature, for example, in […], and B. […] The relevant literature references are incorporated herein by reference and are to be regarded as part of the disclosure.

Row | Compound | % Inhibition of NA uptake [10 μM] [%]
9 | CC(C(=O)Nc1nc2c(s1)CCCC2C(=O)NCC1CCN(Cc2ccccc2OCc2ccccc2)C1)c1ccccc1 (stereo not shown) [Example 36, 2-(2-Phenylpropionylamino)-4,5,6,7-tetrahydrobenzthiazol-4-carboxylic acid[1-(2-benzyloxybenzyl)pyrrolidin-3-yl]methylamide] | 62
10 | N#Cc1ccccc1N1CCN(C(=O)C2CCCc3sc(NC(=O)c4ccco4)nc32)CC1 (stereo not shown) [Example 47, Furan-2-carboxylic acid{4-[4-(2-cyan-phenyl)piperazin-1-carbonyl]-4,5,6,7-tetrahydrobenzthiazol-2-yl]-amide] | 47
11 | N#Cc1ccccc1N1CCN(C(=O)C2CCCc3sc(NC(=O)CCc4ccccc4)nc32)CC1 (stereo not shown) [Example 77, N-{4-[4-(2-Cyan-phenyl)piperazin-1-carbonyl]-4,5,6,7-tetrahydrobenzthiazol-2-yl}-3-phenylpropionamide] | 44
12 | CCCCCC(=O)Nc1nc2c(s1)CCCC2C(=O)N1CCN(c2ccccc2F)CC1 (stereo not shown) [Example 52, Hexanoic acid{4-[4-(2-fluorophenyl)piperazin-1-carbonyl]-4,5,6,7-tetrahydrobenzthiazol-2-yl}amide] | 72
13 | CC(C(=O)Nc1nc2c(s1)CCCC2C(=O)NC1CCN(Cc2ccc(Oc3ccccc3)cc2)C1)c1ccccc1 (stereo not shown) [Example 15, 2-(2-Phenylpropionylamino)-4,5,6,7-tetrahydrobenzthiazol-4-carboxylic acid[1-(4-phenoxybenzyl)pyrrolidin-3-yl]amide] | 91

Same assay, conditions: 10 μM; rat synaptosomes (hypothalamus), [3H]-NA; read-out: % Inhibition of NA uptake [10 μM]

Row | Compound | inhibition at 10 µM [%]
14 | COc1ccccc1CC(=O)Nc1nc2c(s1)CCCC2C(=O)NCC1CCN(Cc2cc3ccccc3o2)C1 (stereo not shown) [Example 56, 2-[2-(2-Methoxyphenyl)acetylamino]-4,5,6,7-tetrahydrobenzthiazol-4-carboxylic acid (1-benzofuran-2-ylmethylpyrrolidin-3-yl)methylamide] | 49
15 | CCOc1ccc(Br)cc1CN1CCC(NC(=O)C2CCCc3sc(NC(=O)c4ccco4)nc32)C1 (stereo not shown) [Example 50, 2-[(Furan-2-carbonyl)amino]-4,5,6,7-tetrahydrobenzthiazol-4-carboxylic acid [1-(5-bromo-2-ethoxybenzyl)pyrrolidin-3-yl]amide] | 93
16 | COc1ccc(C(=O)Nc2nc3c(s2)CCCC3C(=O)NCC2CCN(Cc3c(F)cccc3Cl)C2)cc1 (stereo not shown) [Example 12, 2-(4-Methoxybenzoylamino)-4,5,6,7-tetrahydrobenzthiazol-4-carboxylic acid [1-(2-chloro-6-fluorobenzyl)pyrrolidin-3-yl]methylamide] | 48
17 | CCN(CC)CCNC(=O)C1CCCc2sc(NC(=O)CCc3ccccc3)nc21 (stereo not shown) [Example 38, 2-(3-Phenylpropionylamino)-4,5,6,7-tetrahydrobenzthiazol-4-carboxylic acid (2-diethylaminoethyl)amide] | 42
18 | COc1ccc2ccccc2c1CN1CCN(C(=O)C2CCCc3sc(NC(=O)CC(C)(C)C)nc32)CC1 (stereo not shown) [Example 79, N-{4-[4-(2-Methoxynaphthalene-1-ylmethyl)piperazin-1-carbonyl]-4,5,6,7-tetrahydrobenzthiazol-2-yl}-3,3-dimethylbutyramide] | 71
19 | CC(C(=O)Nc1nc2c(s1)CCCC2C(=O)NCCN(C)C)c1ccccc1 (stereo not shown) [Example 19, 2-(2-Phenylpropionylamino)-4,5,6,7-tetrahydrobenzthiazol-4-carboxylic acid (2-dimethylaminoethyl)amide] | 71
20 | O=C(Nc1nc2c(s1)CCCC2C(=O)NCCN1CCCCCC1)c1ccoc1 (stereo not shown) [Example 16, 2-[(Furan-3-carbonyl)amino]-4,5,6,7-tetrahydrobenzthiazol-4-carboxylic acid (2-azepan-1-ylethyl)amide] | 88
21 | COc1ccc(N2CCN(C(=O)C3CCCc4sc(NC(=O)C(C)c5ccccc5)nc43)CC2C)cc1 (stereo not shown) [Example 60, N-{4-[4-(4-Methoxyphenyl)-3-methylpiperazin-1-carbonyl]-4,5,6,7-tetrahydrobenzthiazol-2-yl}-2-phenylpropionamide] | 41
22 | CC(c1ccccc1)N1CCN(C(=O)C2CCCc3sc(NC(=O)COc4ccccc4)nc32)CC1 (stereo not shown) [Example 66, 2-Phenoxy-N-{4-[4-(1-phenylethyl)piperazin-1-carbonyl]-4,5,6,7-tetrahydrobenzthiazol-2-yl}acetamide] | 48
23 | CN(C)c1ccc(CNC(=O)C2CCCc3sc(NC(=O)c4ccco4)nc32)cc1 (stereo not shown) [Example 58, 2-[(Furan-2-carbonyl)amino]-4,5,6,7-tetrahydrobenzthiazol-4-carboxylic acid 4-dimethylaminobenzylamide] | 72
24 | O=C(C=Cc1ccco1)Nc1nc2c(s1)CCCC2C(=O)N1CCN(Cc2ccsc2)CC1 (stereo not shown) [Example 11, 3-Furan-2-yl-N-[4-(4-thiophen-3-ylmethylpiperazin-1-carbonyl)-4,5,6,7-tetrahydrobenzthiazol-2-yl]acrylamide] | 57
25 | CN(C(=O)C1CCCc2sc(NC(=O)COc3ccccc3)nc21)C1CCN(Cc2ccccc2C(F)(F)F)C1 (stereo not shown) [Example 54, 2-(2-Phenoxyacetylamino)-4,5,6,7-tetrahydrobenzthiazol-4-carboxylic acid methyl-[1-(2-trifluoromethylbenzyl)pyrrolidin-3-yl]amide] | 44
